Data set [1] in a line: Oral (PO) cassette pharmacokinetic study in male Sprague-Dawley rats. The conditions noted are these: plasma; male Sprague-Dawley rat, 2 mg/kg oral gavage cassette in 0.5% methylcellulose; read-out: AUC (0-inf) after a 2 mg/kg PO dose in rat. The format is in vivo. The procedure: (§1) A minimally sufficient volume of dimethylsulfoxide (DMSO) was added to each test compound to achieve solubilization. For intravenous (IV) delivery, compounds were then formulated as solutions in glycerol formal: saline (either 20:80 or 40:60 v/v) (Sigma Chemicals, St. Louis). For oral (PO) administration, compounds were formulated with 0.5% methylcellulose. Five to six compound solutions were combined into a singled mixed solution for IV and PO cassette administration with final DMSO concentrations <0.6% or <1.2%, for the IV and PO cassettes, respectively. Analytes were detected in test samples using an LC/MS/MS (liquid chromatography/mass spectrometry) system consisting of an LC-20AD pump (Shimadzu, Kyoto, Japan), an HTC PAL autosampler (Leap technologies, Carrboro, N.C.), and a Sciex API-4000 mass spectrometer in ESI mode (AB Sciex, Foster City, Calif.). An Amour C18 reverse phase column (Analytical Sales and Services, Pompton Plains, N.J.) was used for chromatographic separation.
(§2) Pharmacokinetic (PK) studies conducted at Saint Louis University used male Sprague-Dawley rats with an initial body weight of 200 to 220 g. IV PK studies were performed with the following compounds: Examples 1-3 and 5-17 and comparison compounds C12-C18, C29, and C30. Animals were allowed free access to food and water. Rats were individually housed and connected to jugular vein catheters. Each cassette formulation was administered intravenously to two rats (1 mL/kg body weight). Each cassette formulation contained 5-6 compounds at 1 mg/kg in either 20:80 or 40/60 glycerol formal/saline (v/v). Blood was collected manually via the catheter into lithium-heparin tubes at 0.017, 0.083, 0.5, 1, 2, 4, 6 and 24 hours post-dose. Animals were euthanized with CO2 at the end of the experiment.
Oral PK studies were conducted with the following compounds: Examples 1-3 and 5-17 and comparison compounds C12, C14-16 and C29-30. The PO cassette formulations were administered via oral gavage to two rats (10 mL/kg body weight) containing 5-6 compounds per cassette. The oral dose was administered at 2 mg/kg/compound in 0.5% methylcellulose. Blood collection time points were 0.25, 0.5, 1, 2, 4, 6 and 24 hours post-dose into lithium-heparin tubes. Animals were euthanized with CO2 at the end of the experiment.
(§3) Internal standard was added to all samples at 200 ng/mL (final), as well as 150 μL of acetonitrile. Plasma samples (50 μL total volume) were diluted with control nave rat plasma as appropriate to bring the sample measurement into the linear dynamic range of the standard curve. The samples were capped and mixed on a multi-plate vortexer for 5 minutes and centrifuged for 5 minutes at 3200 rmp. The supernant was transferred to 96-well sample plate and capped for LC/MS/MS analysis. Compounds were optimized and monitored for their respective MRM transitions. The mobile phases consisted of 0.1% formic acid (aqueous) and 100% acetonitrile (organic) with an Amour C18 reverse phase column (2.1×30 mm, 5 micron) at a flow rate of 0.35 mL/min. The starting phase was 10% acetonitrile for the 0.9 minutes then increased to 90% acetonitrile over 0.4 minutes, and was maintained for an additional 0.2 minutes before returning to 10% acetonitrile over 0.4 minutes. The 10% acetonitrile was held for an additional 1.6 minutes. Peak areas were integrated using Analyst 1.5.1 (AB Sciex, Foster City, Calif.).

The target in data set [2] is Recombinant human integrin αvβ5 (Homo sapiens (Human), UniProt P06756+P18084). The data set is described as follows: Solid Phase Receptor Assay (SPRA) for αvβ5 function. The format is binding. The conditions noted are these: vitronectin-coated plate. The procedure:
4. Solid Phase Receptor Assay (SPRA) for αvβ5 Function
Recombinant human vitronectin (R&D Systems, 2308-VN) at 0.25 μg/mL in TBS+ buffer (25 mM Tris pH 7.4, 137 mM NaCl, 2.7 mM KCl, 1 mM CaCl2, 1 mM MgCl2, 1 mM MnCl2) was added to wells (50 μL/well) of a 96-well half-well transparent microtiter plate (Greiner 675061) and incubated overnight at 4° C. Wells were washed 3 times with 150 μL TBS+ and 150 μL of blocking buffer (TBS+ with 1% bovine serum albumin, Sigma A7906) were added. The plate was incubated for 1 hr at 37° C. and then washed 3× with TBS+ buffer. Recombinant human integrin αvβ5 (R&D Systems, 2528-AV) was diluted to 0.1 μg/mL in TBS+/0.1% bovine serum albumin. Compounds were diluted 1:100 into the integrin solution and then 50 μL added to empty wells of the washed vitronectin-coated plate according to a standard template with each sample repeated in triplicate. After incubation for two hours at room temperature, the plate was washed 3× with 150 μL of TBS+ buffer. To each well, 50 μl of biotinylated anti-αv antibody (R&D Systems, BAF1219) at 0.5 μg/mL in TBS+/0.1% BSA at 0.5 μg/mL were added and the plate covered and incubated for 1 hr at room temperature. After washing the plate 3× with 150 μL of TBS+ buffer, 50 μL of streptavidin-conjugated horseradish peroxidase (R&D Systems DY998) diluted in TBS+ blocking buffer were added to the wells and the plate incubated for 20 min at room temperature. The plate was washed 3× with TBS+ buffer followed by 50 μL of TMB substrate (Sigma T4444) added to each well and the plate incubated for 20 min at room temperature. Plates were read by colorimetric detection at 650 nm wavelength using a Tecan Safire II plate reader. Concentration-response curves were constructed by non-linear regression (best fit) analysis, and IC50 values were calculated for each compound.

Data set [3] is described as follows: IV cassette pharmacokinetic study in male Sprague-Dawley rats (Saint Louis University). The format is in vivo. The conditions noted are these: plasma; male Sprague-Dawley rat, 1 mg/kg IV cassette, sampling to 24 h; read-out: plasma t½ after 1 mg/kg IV bolus dose in rat (converted). The procedure: as §1, §2, §3

Sequence of Recombinant human integrin αvβ5 (P06756 31-992): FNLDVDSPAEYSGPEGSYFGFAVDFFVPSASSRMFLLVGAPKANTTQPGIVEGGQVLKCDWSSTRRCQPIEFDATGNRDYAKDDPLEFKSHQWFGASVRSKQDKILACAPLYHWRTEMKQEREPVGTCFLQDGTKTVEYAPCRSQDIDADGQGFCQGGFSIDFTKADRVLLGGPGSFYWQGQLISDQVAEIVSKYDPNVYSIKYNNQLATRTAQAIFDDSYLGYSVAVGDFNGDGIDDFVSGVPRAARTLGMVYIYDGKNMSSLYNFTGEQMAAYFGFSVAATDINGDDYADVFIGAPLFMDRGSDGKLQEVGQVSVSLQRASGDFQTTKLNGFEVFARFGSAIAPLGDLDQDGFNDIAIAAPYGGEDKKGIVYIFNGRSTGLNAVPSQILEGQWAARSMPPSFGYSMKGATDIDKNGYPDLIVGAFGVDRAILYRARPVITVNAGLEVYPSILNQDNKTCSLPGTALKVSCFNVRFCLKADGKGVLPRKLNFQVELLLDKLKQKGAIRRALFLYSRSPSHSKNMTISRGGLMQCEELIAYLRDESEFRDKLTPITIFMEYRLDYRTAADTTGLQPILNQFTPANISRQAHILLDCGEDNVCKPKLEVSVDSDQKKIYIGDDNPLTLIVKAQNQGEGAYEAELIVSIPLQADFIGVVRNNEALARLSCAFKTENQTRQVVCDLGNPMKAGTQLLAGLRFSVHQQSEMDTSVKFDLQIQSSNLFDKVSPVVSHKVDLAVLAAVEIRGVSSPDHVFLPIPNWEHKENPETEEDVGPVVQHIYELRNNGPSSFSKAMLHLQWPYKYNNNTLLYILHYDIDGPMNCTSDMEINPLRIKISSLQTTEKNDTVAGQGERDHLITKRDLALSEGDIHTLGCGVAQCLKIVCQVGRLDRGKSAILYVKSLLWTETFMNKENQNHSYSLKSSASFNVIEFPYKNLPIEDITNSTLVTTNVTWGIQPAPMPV
Sequence of Recombinant human integrin αvβ5 (P18084 24-719): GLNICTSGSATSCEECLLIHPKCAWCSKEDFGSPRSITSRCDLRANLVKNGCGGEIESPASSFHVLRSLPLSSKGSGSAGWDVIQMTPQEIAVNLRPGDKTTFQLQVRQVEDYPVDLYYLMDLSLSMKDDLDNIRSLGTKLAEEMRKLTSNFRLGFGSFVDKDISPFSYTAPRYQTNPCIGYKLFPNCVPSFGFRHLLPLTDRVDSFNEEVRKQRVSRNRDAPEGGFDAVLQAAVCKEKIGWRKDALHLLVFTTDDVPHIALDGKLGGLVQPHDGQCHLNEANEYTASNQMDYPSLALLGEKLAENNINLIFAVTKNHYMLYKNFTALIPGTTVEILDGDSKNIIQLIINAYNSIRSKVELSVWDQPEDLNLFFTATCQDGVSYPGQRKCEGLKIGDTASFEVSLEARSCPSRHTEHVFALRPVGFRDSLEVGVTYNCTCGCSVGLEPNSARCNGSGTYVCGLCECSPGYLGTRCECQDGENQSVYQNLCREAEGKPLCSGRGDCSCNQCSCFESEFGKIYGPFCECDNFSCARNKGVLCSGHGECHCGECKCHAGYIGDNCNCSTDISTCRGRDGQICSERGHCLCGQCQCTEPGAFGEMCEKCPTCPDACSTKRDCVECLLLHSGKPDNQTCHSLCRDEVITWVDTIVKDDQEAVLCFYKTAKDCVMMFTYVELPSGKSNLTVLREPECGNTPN

`O=C(O)C[C@H](NC(=O)CNC(=O)c1cncc(NC2=NCC(O)CN2)c1)c1cc(Cl)cc(Br)c1` (stereo partly drawn) [Example 8, (3S)-3-(3-bromo-5-chloro-phenyl)-3-[[2-[[5-[(5-hydroxy-1,4,5,6-tetrahydropyrimidin-2-yl)amino]pyridine-3-carbonyl]amino]acetyl]amino]propanoic acid]: the AUC(0-inf) in data set [1] is 4470 ng·h/mL. Further, the IC50 in data set [2] was found to be 0.1 nM. In addition, the half-life in data set [3] was 23.9 h.

For `Cc1cc(Br)cc([C@H](CC(=O)O)NC(=O)CNC(=O)c2cc(O)cc(NC3=NCC(O)CN3)c2)c1` (stereo partly drawn) [Example 11, (3S)-3-[3-bromo-5-methyl-phenyl)-3-(2-(3-hydroxy-5-((5-hydroxy-1,4,5,6-tetrahydropyrimidin-2-yl)amino)benzamido)acetamido)propanoic acid], the AUC(0-inf) in data set [1] came to 9140 ng·h/mL. Besides, the IC50 in data set [2] was determined as 0.3 nM. In addition, the half-life in data set [3] was 24 h. For the compound `O=C(O)C[C@H](NC(=O)CNC(=O)c1cc(O)cc(NC2=NCC(O)CN2)c1)c1cc(Cl)cc(C(F)(F)F)c1` (stereo partly drawn) [Example 5, (3S)-3-[3-chloro-5-(trifluoromethyl)phenyl)-3-(2-(3-hydroxy-5-((5-hydroxy-1,4,5,6-tetrahydropyrimidin-2-yl)amino)benzamido)acetamido]propanoic acid], in data set [1], the AUC(0-inf) came to 11400 ng·h/mL. Further, the IC50 in data set [2] worked out at 0.5 nM. Moreover, in data set [3], the half-life was 6.6 h.

As to `O=C(O)C[C@H](NC(=O)CNC(=O)c1cc(O)cc(NC2=NCC(O)CN2)c1)c1cc(F)cc(Br)c1` (stereo partly drawn) [Example 13, (3S)-3-[3-bromo-5-fluoro-phenyl)-3-(2-(3-hydroxy-5-((5-hydroxy-1,4,5,6-tetrahydropyrimidin-2-yl)amino)benzamido)acetamido)propanoic acid], the AUC(0-inf) in data set [1] came to 13900 ng·h/mL. Also, in data set [2], the IC50 was found to be 0.1 nM. Moreover, in data set [3], the half-life is 11 h. For `Cc1ccc(O)c(C(CC(=O)O)NC(=O)CNC(=O)c2cccc(NC(=N)N)c2)c1` (stereo not drawn) [Example C8, reference compound], the IC50 in data set [2] stood at 5 nM. On the same count and under the same terms, under `N=C(N)Nc1cccc(C(=O)NCC(=O)NC(CC(=O)O)c2ccccc2)c1` (stereo not drawn) [Example C5, reference compound] stands 1 nM.

Regarding `O=C(O)C[C@H](NC(=O)CNC(=O)c1cc(O)cc(NC2=NCC(O)CN2)c1)c1cc(Br)cc(Br)c1` (stereo partly drawn) [Example 1, (3S)-3-(3,5-dibromophenyl)-3-(2-(3-hydroxy-5-((5-hydroxy-1,4,5,6-tetrahydropyrimidin-2-yl)amino)benzamido)acetamido)propanoic acid], the AUC(0-inf) in data set [1] was 25000 ng·h/mL. In data set [2], the IC50 came out at 0.2 nM. Moreover, the half-life in data set [3] is 20.2 h. The matching figures for `O=C(O)C[C@H](NC(=O)CNC(=O)c1cc(O)cc(NC2=NCC(O)CN2)c1)c1cc(Cl)cc(C(F)F)c1` (stereo partly drawn) [Example 3, (3S)-3-[3-chloro-5-(difluoromethyl)phenyl)-3-(2-(3-hydroxy-5-((5-hydroxy-1,4,5,6-tetrahydropyrimidin-2-yl)amino)benzamido)acetamido]propanoic acid]: 4870 ng·h/mL, 0.2 nM and 6.1 h.

Take `O=C(O)C[C@H](NC(=O)CNC(=O)c1cc(O)cc(NC2=NCC(O)CN2)c1)c1cc(Br)cc(C(F)F)c1` (stereo partly drawn) [Example 4, (3S)-3-[3-bromo-5-(difluoromethyl)phenyl)-3-(2-(3-hydroxy-5-((5-hydroxy-1,4,5,6-tetrahydropyrimidin-2-yl)amino)benzamido)acetamido]propanoic acid]: the half-inhibitory concentration (IC50) in data set [2] is 0.4 nM. `O=C(O)C[C@H](NC(=O)CNC(=O)c1cc(O)cc(NC2=NCC(O)CN2)c1)c1cc(Cl)cc(Br)c1` (stereo partly drawn) [Example 6, (3S)-3-[3-bromo-5-chloro-phenyl)-3-(2-(3-hydroxy-5-((5-hydroxy-1,4,5,6-tetrahydropyrimidin-2-yl)amino)benzamido)acetamido]propanoic acid]: the AUC(0-inf) in data set [1] stood at 34400 ng·h/mL. The IC50 in data set [2] turned out to be 0.2 nM. Also, the half-life in data set [3] was 16.7 h. The matching figures for `O=C(O)C[C@H](NC(=O)CNC(=O)c1cc(O)cc(NC2=NCC(O)CN2)c1)c1cc(Cl)cc(OC(F)(F)F)c1` (stereo partly drawn) [Example 16, (3S)-3-[3-chloro-5-(trifluoromethoxy)phenyl)-3-(2-(3-hydroxy-5-((5-hydroxy-1,4,5,6-tetrahydropyrimidin-2-yl)amino)benzamido)acetamido)propanoic acid]: 6810 ng·h/mL, 0.6 nM and 3.2 h. With `Cc1ccc(O)c(C(CC(=O)O)NC(=O)CNC(=O)c2cc(O)cc(NC3=NCC(O)CN3)c2)c1` (stereo not drawn) [Example C6, reference compound], in data set [2], the IC50 is 1 nM. For the compound `O=C(O)CC(NC(=O)CNC(=O)c1cc(O)cc(NC2=NCC(O)CN2)c1)c1cc(Cl)cc(Cl)c1O` (stereo not drawn) [Example C3, reference compound], the IC50 in data set [2] turned out to be 2 nM.

`Cc1cc(Cl)cc([C@@H](CC(=O)O)NC(=O)CNC(=O)c2cccc(NC3=NCCN3)c2)c1O` [Example C11, reference compound]: the IC50 in data set [2] stood at 2 nM. Still for that read-out and setting: under `O=C(O)CC(NC(=O)CNC(=O)c1cc(O)cc(NC2=NCC(O)CN2)c1)c1cc(Br)cc(Br)c1O` (stereo not drawn) [Example C7, reference compound] stands 25 nM; under `O=C(O)C[C@H](NC(=O)CNC(=O)c1cc(O)cc(NC2=NCC(O)CN2)c1)c1cc(Cl)cc(Br)c1O` (stereo partly drawn) [Example C1, reference compound], 3 ± 1 nM. On the same count and under the same terms, under `N=C(N)Nc1cccc(C(=O)NCC(=O)NC(CC(=O)O)c2cc(F)cc(C(F)(F)F)c2)c1` (stereo not drawn) [Example C9, reference compound] stands 0.4 nM; under `O=C(O)C[C@H](NC(=O)CNC(=O)c1cc(O)cc(NC2=NCC(O)CN2)c1)c1ccccc1` (stereo partly drawn) [Example C2, reference compound], 0.4 nM. The same measure, in the same setting: under `Cc1cc(Cl)cc([C@@H](CC(=O)O)NC(=O)CNC(=O)c2cc(O)cc(NC3=NCC(O)CN3)c2)c1O` (stereo partly drawn) [Example C10, reference compound] stands 2 nM.

`Cc1cc(C)cc(C(CC(=O)O)NC(=O)CNC(=O)c2cccc(NC(=N)N)c2)c1` (stereo not drawn) [Example C4, reference compound]: the IC50 in data set [2] amounted to 2 nM.

These data come from patent US10035778B2, “Meta-azacyclic amino benzoic acid derivatives as pan integrin antagonists” (Saint Louis University, priority 2015, dated 2018).
